In US4663320A, “(2-oxo-1,2,3,5-tetrahydroimidazo[2,1-b]quinoazolinyl)oxyalkylamides, compositions and the use thereof” (Syntex (U.S.A.) Inc., priority 1985, dated 1987):
Like-named read-outs stand apart in the source and are kept apart here.

How the values were obtained:
Lewis Lung Carcinoma = test: Antimetastatic activity against Lewis Lung Carcinoma (Spontaneous Metastases); format: in vivo, mouse; conditions: oral 5 mg/kg every other day, day 20-21, p < 0.05
Procedure: Mice (female, C57B1/6, 16-18 gm) were inoculated subcutaneously between the inguinal and axillary areas with 0.2 ml of a freshly prepared tumor brei. Mice were treated orally with control vehicle (0.5% carboxymethylcellulose (CMC) or with test compound in suspension in 0.5% CMC. Treatments were initiated one day after tumor implantation, and continued every other day throughout the experiment. 20-21 days after initial implantation of the tumor, mice were sacrificed, weight of the primary tumor was determined, and the number of lung metastases was determined by counting under a disecting microscope. The results are shown in Table III.

Mongrel dogs = test: Inotropic activity in anesthetized dogs; format: in vivo; conditions: dog
Procedure: Mongrel dogs were anesthetized intravenously with 35 mg/Kg sodium pentobarbital and supplemented as needed. Blood pressure was measured with a Statham pressure transducer via a cannula inserted from a femoral artery into the abdominal aorta. Heart rate was recorded by a cardiotachometer from a lead II electrocardiogram. Right ventricular contractile force was recorded from a Walton-Brodie strain gauge sutured to the right ventricle following a midsternal thoracotomy. A Harvard respirator was used to ventilate the dogs with room air through an endotracheal tube. The dog was bilaterally vagotomized. Following a midline laparotomy, a cannula was sutured into the duodenum for intraduodenal administration of test compound. A femoral vein was cannulated for administration of isoproterenol. All data were recorded on a Beckman R611 Dynograph.
To assess the responsiveness of each dog, isoproterenol was given intravenously at half-log interval doses from 0.007 to 2.1 or 6.67 μg/Kg. The test compound was then administered intraduodenally, usually at a low dose of 2 mg/Kg and subsequently at higher doses of 6.32 and/or 20 mg/Kg, if necessary. In a few instances, some compounds administered intraduodenally at dose levels from 0.316 to 3.16 mg/Kg.

[1] = Acute and delayed toxicity in mice; format: in vivo; conditions: mouse, in vivo, mice, aqueous suspension (polysorbate 80)
Procedure: (§1) Three groups of three male mice (Sim:(ICR)fBR) in a weight range of 20 to 24 grams were used in this study. N-cyclohexyl-N-methyl-4-(2-oxo-1,2,3,5-tetrahydroimidazo[2,1-b]quinazolin- 7-yl)oxy-butyramide was administered intraperitoneally as an aqueous suspension (polysorbate 80).
(§2) When the test compound was administered orally, also as an aqueous suspension (polysorbate 80), the results are as follows: […]

male mice (Sim:(ICR)fBR) = test: Acute and delayed toxicity in mice; format: in vivo; conditions: deaths/animals
Procedure: as §1, §2

B16-F10 melanoma cells = test: Antimetastatic activity against B-16 Melanoma (B16-F10); format: in vivo, mouse; conditions: oral 5 mg/kg every other day, day 20-21, control 23, p ≤ 0.01
Procedure: (§3) Mice (female, C57B1/6, 16-18 gm) were injected intravenously with either 7.5×10^4 viable B16-BL6 or B16-F10 melanoma cells, as indicated. The mice were orally treated with vehicle or drug, starting one day after tumor cell injection, and continuing every other day until the mice were sacrificed 20-21 days after tumor cell inoculation. The number of lung metastases was determined as described above, and the results are shown in Table IV (B16-BL6) or Table V (B16-F10).

B16-BL6 melanoma cells = test: Antimetastatic activity against B-16 Melanoma (B16-BL6); format: in vivo, mouse; conditions: oral 5 mg/kg every other day, day 20-21, control 10, p ≤ 0.02
Procedure: as §3

[2] = tested on: rat heart phosphodiesterase; test: Cyclic AMP phosphodiesterase inhibition (rat heart); format: biochemical
Procedure: (§4) The inhibition of cyclic AMP phosphodiesterase activity by the subject compounds was assayed by the method of Filburn and Karn, Analyt. Biochem., 52:505-516 (1973), using 1 μM cyclic AMP as the substrate. Human platelet cyclic AMP phosphodiesterase was obtained from human donors. Platelets were isolated and washed by centrifugation, the membranes ruptured by a sequential freeze-thaw procedure and hypotonic lysis and the soluble enzyme isolated by high speed centrifugation. The enzyme was stored in aliquots at -20° C.
(§5) This table contains the IC50 values for human platelet phosphodiesterase and IC25 values for rat heart phosphodiesterase.

[3] = tested on: Human platelet cyclic AMP phosphodiesterase; test: Cyclic AMP phosphodiesterase assay (human platelet); format: biochemical; conditions: for IC50: human platelet phosphodiesterase, 1 μM cyclic AMP as substrate; for Relative Potency: relative to theophylline (assigned a value of 1) on human platelet phosphodiesterase
Procedure: as §4, §5

CN(C(=O)CCCOc1ccc2c(c1)CN1CC(=O)NC1=N2)C1CCCCC1 [N-cyclohexyl-N-methyl-4-(2-oxo-1,2,3,5-tetrahydroimidazo[2,1-b]quinazolin-7-yl)oxybutyramide]
Pulmonary Metastases Median (Lewis Lung Carcinoma; control 28): 10.5 | Size of Primary Tumor (Lewis Lung Carcinoma; ± S.E., control 5.1 ± 0.4): 3.9 ± 0.4 gm | Blood Pressure, peak effect as % of max. isoproterenol (Mongrel dogs; intraduodenal, 2 mg/kg): 25% | Heart Rate, peak effect as % of max. isoproterenol (Mongrel dogs; intraduodenal, 2 mg/kg): 30% | Rt. Ventricular Contractile Force, peak effect as % of max. isoproterenol (Mongrel dogs; intraduodenal, 2 mg/kg): 48% | Blood Pressure, peak effect as % of max. isoproterenol (Mongrel dogs; intraduodenal, 6.23 mg/kg): 96% | Heart Rate, peak effect as % of max. isoproterenol (Mongrel dogs; intraduodenal, 6.23 mg/kg): 40% | Rt. Ventricular Contractile Force, peak effect as % of max. isoproterenol (Mongrel dogs; intraduodenal, 6.23 mg/kg): 44% | LD50 ([1]; ip, intraperitoneal, read-out: LD50 (intraperitoneal)): > 1500 mg/kg | LD50 ([1]; oral, read-out: LD50 (oral)): > 1500 mg/kg | Death (male mice (Sim:(ICR)fBR); intraperitoneal, 500 mg/Kg): 0/3 | Death (male mice (Sim:(ICR)fBR); intraperitoneal, 1,000 mg/Kg): 0/3 | Death (male mice (Sim:(ICR)fBR); intraperitoneal, 1,500 mg/Kg): 0/3 | Death (male mice (Sim:(ICR)fBR); oral, 500 mg/Kg): 0/3 | Death (male mice (Sim:(ICR)fBR); oral, 1,000 mg/Kg): 0/3 | Death (male mice (Sim:(ICR)fBR); oral, 1,500 mg/Kg): 0/3 | Pulmonary Metastases Median (B16-F10 melanoma cells): 1.5 | Pulmonary Metastases Median (B16-BL6 melanoma cells): 3 | Rat Heart IC25 [2]: 260 nM | IC50 [3]: 12.5 nM | Relative Potency [3]: 21,600

C[C@@H]1C(=O)NC2=Nc3ccc(OCCCC(=O)N(C)C4CCCCC4)cc3CN21 [N-cyclohexyl-N-methyl-4-(2-oxo-3-D-methyl-1,2,3,5-tetrahydroimidazo[2,1-b]quinazolin-7-yl)oxybutyramide]
Blood Pressure, peak effect as % of max. isoproterenol (Mongrel dogs; i.v., 0.1 mg/kg): 82% | Heart Rate, peak effect as % of max. isoproterenol (Mongrel dogs; i.v., 0.1 mg/kg): 73% | Rt. Ventricular Contractile Force, peak effect as % of max. isoproterenol (Mongrel dogs; i.v., 0.1 mg/kg): 43% | Blood Pressure, peak effect as % of max. isoproterenol (Mongrel dogs; intraduodenal, 0.316 mg/kg): 13% | Heart Rate, peak effect as % of max. isoproterenol (Mongrel dogs; intraduodenal, 0.316 mg/kg): 18% | Rt. Ventricular Contractile Force, peak effect as % of max. isoproterenol (Mongrel dogs; intraduodenal, 0.316 mg/kg): 18% | Blood Pressure, peak effect as % of max. isoproterenol (Mongrel dogs; intraduodenal, 1.0 mg/kg): 49% | Heart Rate, peak effect as % of max. isoproterenol (Mongrel dogs; intraduodenal, 1.0 mg/kg): 48% | Rt. Ventricular Contractile Force, peak effect as % of max. isoproterenol (Mongrel dogs; intraduodenal, 1.0 mg/kg): 50% | Blood Pressure, peak effect as % of max. isoproterenol (Mongrel dogs; intraduodenal, 3.16 mg/kg): 82% | Heart Rate, peak effect as % of max. isoproterenol (Mongrel dogs; intraduodenal, 3.16 mg/kg): 72% | Rt. Ventricular Contractile Force, peak effect as % of max. isoproterenol (Mongrel dogs; intraduodenal, 3.16 mg/kg): 53% | Rat Heart IC25 [2]: 27 nM | IC50 [3]: 5.4 nM | Relative Potency [3]: 50,000
